Source: article PMC12304869 (Obesity (Silver Spring, Md.), 2025)

How the values were obtained:
[1] = cited from earlier work
[2] = cited from earlier work; remark: listed apart in the source
[3] = DIO rats: body weight during daily s.c. semaglutide; assay type: in vivo, male Sprague Dawley rats; settings: n = 9
[4] = assay type: in vivo, male Sprague Dawley rats; settings: DIO rats
[5] = Phase 2 part 2: pharmacodynamics; assay type: in vivo, human; settings: part 2b

Row | Substance | half‐life (t1/2) [1] | weight loss after 12 weeks of treatment ([2]; intranasal, 200‐μg dose, participants with obesity, placebo −2.8 kg) [kg] | treatment discontinuation due to nausea and vomiting ([2]; phase 1, intranasal 600 μg) | body weight loss after 26 days of treatment, mean (SD) ([3]; semaglutide 3 nmol/kg daily s.c.) | body weight loss after 26 days of treatment, mean (SD) ([3]; semaglutide 30 nmol/kg daily s.c.) | body weight loss after 26 days of treatment, mean (SD) ([3]; semaglutide 100 nmol/kg daily s.c.) | cumulative food intake from day 1 to 26, mean (SD) ([4]; vehicle + 30 nmol/kg semaglutide) | mean body weight change after 26 days, mean (SD) ([4]; vehicle + 30 nmol/kg semaglutide daily s.c., n = 9) | change in body weight from baseline (week 32) to EOT (week 48) ([5]; placebo + semaglutide 2.4 mg weekly, ANCOVA estimate, FAS) [%] | change in body weight from baseline to EOT ([5]; placebo + semaglutide 2.4 mg) [kg] | weight loss ([2]; semaglutide 2.4 mg alone, over 68 weeks) [%]
1 | PYY3‐36: active, Y2‐selective cleaved form of the hormone peptide YY | roughly 10 min | -3.7 | a majority of participants receiving 600 μg discontinued treatment |  |  |  |  |  |  |  | 
2 | semaglutide |  |  |  | −8.8% (2.9%) | −14.2% (3.0%) | −17.4% (5.7%) | 389 (53) g | −12.5% (3.4%) | −3.1 | -2.2 | 14.9
